From paper PMC9090415, “Discovery of small molecule inhibitors of Plasmodium falciparum apicoplast DNA polymerase” (Journal of Enzyme Inhibition and Medicinal Chemistry, 2022)

Target: P. falciparum apicoplast DNA polymerase (Pf-apPOL) (Plasmodium falciparum, UniProt Q8ILY1)
Experiment: Fluorescence-based high-throughput DNA polymerase assay (molecular beacon), primary screen and dose-response
Type: biochemical
Details: for DNA Pol: unit not given, 90 min, 10 µM; for % inhibition Apo pol 10' 2.5 / % inhibition Apo pol 10' 5 / % inhibition Apo pol 10' 10 / % inhibition Apo pol 10' 20 / % inhibition Apo pol 10' 40 / % inhibition Apo pol 10' 80: read at 10'; for % inhibition Apol 90' 2.5 / % inhibition Apol 90' 5 / % inhibition Apol 90' 10 / % inhibition Apol 90' 20 / % inhibition Apol 90' 40 / % inhibition Apol 90' 80 / % inhibition ApPOL 90' 2.5 / % inhibition ApPOL 90' 5 / % inhibition ApPOL 90' 10 / % inhibition ApPOL 90' 20 / % inhibition ApPOL 90' 40 / % inhibition ApPOL 90' 80: read at 90'; for % inhibition apPOL 180' 2.5 / % inhibition apPOL 180' 5 / % inhibition apPOL 180' 10 / % inhibition apPOL 180' 20 / % inhibition apPOL 180' 40 / % inhibition apPOL 180' 80: read at 180'; for % inhibition Apo pol 5' 2.5 / % inhibition Apo pol 5' 5 / % inhibition Apo pol 5' 10 / % inhibition Apo pol 5' 20 / % inhibition Apo pol 5' 40 / % inhibition Apo pol 5' 80: read at 5'; for % inhibition Apol 40' 2.5 / % inhibition Apol 40' 5 / % inhibition Apol 40' 10 / % inhibition Apol 40' 20 / % inhibition Apol 40' 40 / % inhibition Apol 40' 80: read at 40'
Outline: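 Single-point screening used 10 µM compound with 20 nM polymerase, 20 nM hairpin substrate and 6 µM dNTPs for 90 min at 25 °C. Confirmatory titrations (2.5–80 µM) followed fluorescence at three times, and IC50 was derived from a fit including a cooperativity term n.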

[1] = 186 hits, DNA Pol (screen value)
[2] = first dose-response, concentration 2.5
[3] = first dose-response, concentration 10
[4] = first dose-response, concentration 20

Sequence of P. falciparum apicoplast DNA polymerase (Pf-apPOL) (Q8ILY1 entry or part of it): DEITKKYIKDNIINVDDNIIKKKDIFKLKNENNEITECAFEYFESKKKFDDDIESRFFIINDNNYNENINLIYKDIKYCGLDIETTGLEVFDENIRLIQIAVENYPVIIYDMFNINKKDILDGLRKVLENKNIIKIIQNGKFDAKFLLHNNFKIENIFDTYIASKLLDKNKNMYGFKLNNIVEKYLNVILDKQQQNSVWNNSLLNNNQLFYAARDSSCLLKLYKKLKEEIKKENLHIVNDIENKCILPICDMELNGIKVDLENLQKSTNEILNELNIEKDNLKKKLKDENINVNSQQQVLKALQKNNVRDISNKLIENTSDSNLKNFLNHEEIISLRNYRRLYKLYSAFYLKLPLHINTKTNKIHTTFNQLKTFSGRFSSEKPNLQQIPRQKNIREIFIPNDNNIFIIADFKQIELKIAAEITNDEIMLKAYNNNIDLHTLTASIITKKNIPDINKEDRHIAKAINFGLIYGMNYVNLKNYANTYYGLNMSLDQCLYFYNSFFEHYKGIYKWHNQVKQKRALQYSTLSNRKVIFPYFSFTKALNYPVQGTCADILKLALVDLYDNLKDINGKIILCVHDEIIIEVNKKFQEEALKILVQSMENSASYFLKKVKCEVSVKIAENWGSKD

O=C(c1ccccc1)N1CCc2c(nc3cc(-c4ccccc4)[nH]n3c2=O)C1 [Molecule 30, O=C(N1CCc2c(C1)nc1n(c2=O)[nH]c(c1)c1ccccc1)c1ccccc1]
DNA Pol [1]: 51
DNA Pol ('DNA Pol' (screen value)): 51
% inhibition Apo pol 10' 2.5 (DRC-1, concentration 2.5): 12.9086%
% inhibition Apo pol 10' 5 (DRC-1, concentration 5): 15.849%
% inhibition Apo pol 10' 10 (DRC-1, concentration 10): 54.0092%
% inhibition Apo pol 10' 20 (DRC-1, concentration 20): 76.4447%
% inhibition Apo pol 10' 40 (DRC-1, concentration 40): 86.2157%
% inhibition Apo pol 10' 80 (DRC-1, concentration 80): 78.4105%
% inhibition Apol 90' 2.5 (DRC-1, concentration 2.5): 4.897%
% inhibition Apol 90' 5 (DRC-1, concentration 5): 3.579%
% inhibition Apol 90' 10 (DRC-1, concentration 10): 37.2459%
% inhibition Apol 90' 20 (DRC-1, concentration 20): 61.0288%
% inhibition Apol 90' 40 (DRC-1, concentration 40): 75.6472%
% inhibition Apol 90' 80 (DRC-1, concentration 80): 72.6232%
% inhibition apPOL 180' 2.5 (DRC-1, concentration 2.5): 0.553%
% inhibition apPOL 180' 5 (DRC-1, concentration 5): -2.049%
% inhibition apPOL 180' 10 (DRC-1, concentration 10): 22.4217%
% inhibition apPOL 180' 20 (DRC-1, concentration 20): 42.2339%
% inhibition apPOL 180' 40 (DRC-1, concentration 40): 59.6497%
% inhibition apPOL 180' 80 (DRC-1, concentration 80): 57.0627%
% inhibition Apo pol 5' (DRC-2, concentration 5): 18%
% inhibition Apo pol 5' (DRC-2, concentration 10): 37%
% inhibition Apo pol 5' (DRC-2, concentration 20): 50%
% inhibition Apo pol 5' (DRC-2, concentration 80): 37%
% inhibition Apol 40' (DRC-2, concentration 20): 61%
% inhibition ApPOL 90' (DRC-2, concentration 5): 18%
% inhibition ApPOL 90' (DRC-2, concentration 20): 60%
% inhibition ApPOL 90' (DRC-2, concentration 40): 61%
% inhibition ApPOL 90' (DRC-2, concentration 80): 60%
% inhibition apPOL 180' (DRC-2, concentration 20): 50%
% inhibition Apo pol 5' 2.5 (DRC-2, concentration 2.5): 6.51%
% inhibition Apo pol 5' 5 (DRC-2, concentration 5): 18%
% inhibition Apo pol 5' 10 (DRC-2, concentration 10): 37%
% inhibition Apo pol 5' 20 (DRC-2, concentration 20): 50%
% inhibition Apo pol 5' 40 (DRC-2, concentration 40): 48%
% inhibition Apo pol 5' 80 (DRC-2, concentration 80): 37%
% inhibition Apol 40' 2.5 (DRC-2, concentration 2.5): 6.57%
% inhibition Apol 40' 5 (DRC-2, concentration 5): 20%
% inhibition Apol 40' 10 (DRC-2, concentration 10): 41%
% inhibition Apol 40' 20 (DRC-2, concentration 20): 61%
% inhibition Apol 40' 40 (DRC-2, concentration 40): 62%
% inhibition Apol 40' 80 (DRC-2, concentration 80): 57%
% inhibition ApPOL 90' 2.5 (DRC-2, concentration 2.5): 5%
% inhibition ApPOL 90' 5 (DRC-2, concentration 5): 18%
% inhibition ApPOL 90' 10 (DRC-2, concentration 10): 39%
% inhibition ApPOL 90' 20 (DRC-2, concentration 20): 60%
% inhibition ApPOL 90' 40 (DRC-2, concentration 40): 61%
% inhibition ApPOL 90' 80 (DRC-2, concentration 80): 60%
% inhibition apPOL 180' 2.5 (DRC-2, concentration 2.5): 0.84%
% inhibition apPOL 180' 5 (DRC-2, concentration 5): 10%
% inhibition apPOL 180' 10 (DRC-2, concentration 10): 29%
% inhibition apPOL 180' 20 (DRC-2, concentration 20): 50%
% inhibition apPOL 180' 40 (DRC-2, concentration 40): 52%
% inhibition apPOL 180' 80 (DRC-2, concentration 80): 54%

COc1ccc(C2CC(c3ccc(Cl)cc3Cl)Nc3nc(N)nn32)cc1OC (stereo not shown) [Molecule 43, COc1cc(ccc1OC)C1CC(Nc2n1nc(n2)N)c1ccc(cc1Cl)Cl]
DNA Pol [1]: 50
DNA Pol ('DNA Pol' (screen value)): 50
% inhibition Apo pol 10' 2.5 (DRC-1, concentration 2.5): 35%
% inhibition Apo pol 10' 5 (DRC-1, concentration 5): 39%
% inhibition Apo pol 10' 10 (DRC-1, concentration 10): 50%
% inhibition Apo pol 10' 20 (DRC-1, concentration 20): 56%
% inhibition Apo pol 10' 40 (DRC-1, concentration 40): 63%
% inhibition Apo pol 10' 80 (DRC-1, concentration 80): 71%
% inhibition Apol 90' 2.5 (DRC-1, concentration 2.5): 28%
% inhibition Apol 90' 5 (DRC-1, concentration 5): 32%
% inhibition Apol 90' 10 (DRC-1, concentration 10): 43%
% inhibition Apol 90' 20 (DRC-1, concentration 20): 51%
% inhibition Apol 90' 40 (DRC-1, concentration 40): 58%
% inhibition Apol 90' 80 (DRC-1, concentration 80): 67%
% inhibition apPOL 180' 2.5 (DRC-1, concentration 2.5): 22%
% inhibition apPOL 180' 5 (DRC-1, concentration 5): 25%
% inhibition apPOL 180' 10 (DRC-1, concentration 10): 35%
% inhibition apPOL 180' 20 (DRC-1, concentration 20): 43%
% inhibition apPOL 180' 40 (DRC-1, concentration 40): 52%
% inhibition apPOL 180' 80 (DRC-1, concentration 80): 62%
% inhibition Apo pol 5' (DRC-2, concentration 5): 22%
% inhibition Apo pol 5' (DRC-2, concentration 10): 28%
% inhibition Apo pol 5' (DRC-2, concentration 20): 30%
% inhibition Apo pol 5' (DRC-2, concentration 40): 39%
% inhibition Apol 40' (DRC-2, concentration 2.5): 26%
% inhibition Apol 40' (DRC-2, concentration 5): 29%
% inhibition Apol 40' (DRC-2, concentration 20): 42%
% inhibition Apol 40' (DRC-2, concentration 80): 51%
% inhibition ApPOL 90' (DRC-2, concentration 2.5): 26%
% inhibition ApPOL 90' (DRC-2, concentration 5): 29%
% inhibition ApPOL 90' (DRC-2, concentration 20): 42%
% inhibition ApPOL 90' (DRC-2, concentration 40): 50%
% inhibition ApPOL 90' (DRC-2, concentration 80): 52%
% inhibition apPOL 180' (DRC-2, concentration 10): 30%
% inhibition apPOL 180' (DRC-2, concentration 20): 35%
% inhibition apPOL 180' (DRC-2, concentration 40): 43%
% inhibition Apo pol 5' 2.5 (DRC-2, concentration 2.5): 23%
% inhibition Apo pol 5' 5 (DRC-2, concentration 5): 22%
% inhibition Apo pol 5' 10 (DRC-2, concentration 10): 28%
% inhibition Apo pol 5' 20 (DRC-2, concentration 20): 30%
% inhibition Apo pol 5' 40 (DRC-2, concentration 40): 39%
% inhibition Apo pol 5' 80 (DRC-2, concentration 80): 38%
% inhibition Apol 40' 2.5 (DRC-2, concentration 2.5): 26%
% inhibition Apol 40' 5 (DRC-2, concentration 5): 29%
% inhibition Apol 40' 10 (DRC-2, concentration 10): 36%
% inhibition Apol 40' 20 (DRC-2, concentration 20): 42%
% inhibition Apol 40' 40 (DRC-2, concentration 40): 49%
% inhibition Apol 40' 80 (DRC-2, concentration 80): 51%
% inhibition ApPOL 90' 2.5 (DRC-2, concentration 2.5): 26%
% inhibition ApPOL 90' 5 (DRC-2, concentration 5): 29%
% inhibition ApPOL 90' 10 (DRC-2, concentration 10): 37%
% inhibition ApPOL 90' 20 (DRC-2, concentration 20): 42%
% inhibition ApPOL 90' 40 (DRC-2, concentration 40): 50%
% inhibition ApPOL 90' 80 (DRC-2, concentration 80): 52%
% inhibition apPOL 180' 2.5 (DRC-2, concentration 2.5): 18%
% inhibition apPOL 180' 5 (DRC-2, concentration 5): 21%
% inhibition apPOL 180' 10 (DRC-2, concentration 10): 30%
% inhibition apPOL 180' 20 (DRC-2, concentration 20): 35%
% inhibition apPOL 180' 40 (DRC-2, concentration 40): 43%
% inhibition apPOL 180' 80 (DRC-2, concentration 80): 46%
% inhibition Apo pol 10' [2]: 35%
% inhibition Apo pol 10' (first dose-response, concentration 5): 39%
% inhibition Apo pol 10' [3]: 50%
% inhibition Apol 90' [2]: 28%
% inhibition Apol 90' [3]: 43%
% inhibition Apol 90' [4]: 51%
% inhibition apPOL 180' [2]: 22%
% inhibition apPOL 180' [3]: 35%
% inhibition apPOL 180' [4]: 43%
% inhibition apPOL 180' (first dose-response, concentration 40): 52%
